Experiments:
[1] = system: TNFalpha release in human whole blood stimulated with LPS; experiment: Inhibition of LPS induced TNFalpha release in human whole blood; format: cell-based; conditions: 1 microg/mL LPS, 4 hours, reported as range bins, read-out: Inhibition of LPS induced TNFalpha release in human whole blood pIC30 (-log IC30)
Protocol: Method for Measuring the Inhibition of TNFalpha Release in Human Whole Blood Stimulated with LPS:
Assay was performed with some modifications of the method described by Hatzelmann and Schudt (Hatzelmann and Schudt (2001) JPET 297: 267-279) and the protocol “drawing of venous blood from healthy volunteers for in vitro studies” was approved by the ethics committee of the Landesärztekammer Baden Württemberg in Stuttgart.
Heparinised venous blood was equilibrated to assay conditions for 1 hour at room temperature upon blood drawing. Immediately thereafter, 200 microL whole blood per sample were pre-incubated with 25 microL of a serial dilution of test compound or piclamilast as positive control for 30 min. at 37° C. After pre-incubation blood samples were stimulated by the addition of 25 microL lipopolysaccharide (LPS) (Sigma, Aldrich) per sample resulting in a final concentration of 1 microg/mL LPS and a final volume of 250 microL. Cells were incubated for 4 hours at 37° C. TNFalpha levels were determined from plasma that was obtained by a centrifugation step and transferring the supernatant to a new 96-well plate which was again centrifuged and clear plasma supernatant was used for the measurement of TNFalpha via alphaLISA Technology according to manufacture protocol (Perkin Elmer).
Whole blood samples that were not stimulated with LPS were used as control and set for 100% inhibition. Whole blood samples that were stimulated with LPS and solvent instead of test compound were set as 0% inhibition. Percent inhibition was calculated based on these controls for each sample and since most compounds achieved saturating maximal inhibition of 60% a pIC30 value was calculated with GraphPad Prism Software.
For the following compounds the inhibitory values of TNFalpha release [determined as −log IC30=pIC30] in the human whole blood assay between 4.5 and 4.9, between 5.0 and 5.9 and between 6.0 and 6.9 have been determined. The numbers of the compounds correspond to the examples numbers.
Inhibition of LPS Induced TNFalpha Release Assay in Human Whole Blood: pIC30

[2] = system: total leukocyte and neutrophil counts in bronchoalveolar lavage fluid; experiment: In vivo assay: LPS-induced pulmonary inflammation model in rats; parameters: species or system Sprague Dawley rats; conditions: Rattus norvegicus, po; p.o. 1 h prior to LPS aerosol; BAL cell counts 4 h after LPS
Protocol: In Vivo Assay: LPS-Induced Pulmonary Inflammation Model in Rats
Exposure of rats to aerosolised lipopolysaccharide (LPS) causes a pulmonary mainly neutrophilic inflammation, which can be assessed by bronchoalveolar lavage (BAL). LPS-induced pulmonary inflammation models are robust and are commonly used for the evaluation of test compounds modulating the immediate immune response. Selective EP2 agonists are administered per oral 1 h prior nose-only LPS challenge in rats. The anti-inflammatory activity of the selective EP2 agonists is assessed based on pulmonary total leukocyte and neutrophil counts in the bronchoalveolar lavage fluid 4 h after LPS exposure.
Male Sprague Dawley rats weighing 250-300 g were used. Rats were delivered 1 week prior to the experiments and hadfree access to water and food.
The test compound was mixed with 1.33% polyethylenglycol 400 (PEG400, Merck, Darmstadt, Germany) and subsequently suspended in 2% methocel solution (hypromellose, Sigma, Steinheim, Germany) containing Antifoam C Emulsion (Sigma, Steinheim, Germany, 0.1 mL/15 mL) using a mixing device (ULTRA-TURRAX T8 basic, VDI12, VWR International GmbH). The aimed doses were prepared by dilution series from the stock suspension, which was prepared for the administration of the highest dose in each experiment.
The administered volume of the compound suspension was 10 mL/kg. On day of the experiment the rat body weights were documented to calculate the volume to be administered. LPS challenged and unchallenged control animals received compound-free vehicle solution as placebo. Test compounds and vehicle were administered by oral gavage 1 h prior to LPS challenge.
Conscious and restrained animals were connected to a nose-only exposure system (CR equipment SA, Tannay, Switzerland) and were exposed to the LPS aerosol for 30 min. The LPS-containing aerosol was generated using a compressed air driven medication nebulizer device (Pari LC Sprint Star, Pari GmbH, Starnberg, Germany). The LPS solution (E. coli, Serotype 055B5, Sigma-Aldrich, 1 mg/ml diluted in PBS) was prepared 30 minutes in advance. The aerosol was dispersed and transported to the exposure tower by a sheath air flow of 6001/h. All rats except negative controls were exposed to LPS.
4 hours after LPS challenge, animals were anesthetised by isoflurane and scarified by cervical dislocation. BALs were performed. For the BAL the trachea was exposed and cannulated, followed by gently lavaging the lungs two times in situ with 4 ml PBS buffer supplemented with 0.5% Bovine Serum Albumin (Serve, Darmstadt, Germany).
Determination of total leukocyte and neutrophil counts in BALF was performed with an automated leukocyte differentiation system (XT-2000iV, Sysmex, Norderstedt, Germany).
The baseline correction was done for each sample according to the formula: baseline-corrected cell count value=cell count−median (negative control group)
Suppression of LPS-induced total cell and neutrophil influx into the lungs was calculated in % using the medians of the cell counts of each treatment group in relation to the control groups according to the formula: % effect=(Y−K)/K*100 • With defining: • Y=median of the baseline-corrected compound treated group • K=median of the baseline-corrected vehicle treated group
Statistical analysis was performed on the primary cell count data using One-Way ANOVA and Dunnett's Multiple Comparison test vs. positive control.

| SMILES | IC30 [1] | ED50 [2] |
| --- | --- | --- |
| O=C(O)/C=C/c1cccc(NC(=O)c2cc(-c3ccccc3)cc3ccccc23)c1 [Example 1, (2E)-3-(3-{[(3-phenylnaphthalen-1-yl)carbonyl]amino}phenyl)prop-2-enoic acid] | 126 to 1000 nM | 0.1 to 2 mg/kg |
| O=C(O)/C=C/c1ccc(F)c(NC(=O)c2cc(-c3ccccc3)cc3ccccc23)c1 [Example 2, (2E)-3-(4-fluoro-3-{[(3-phenylnaphthalen-1-yl)carbonyl]amino}phenyl)prop-2-enoic acid] | 126 to 1000 nM | 0.1 to 2 mg/kg |
| O=C(O)/C=C/c1ccc(Cl)c(NC(=O)c2cc(-c3ccccc3)cc3ccccc23)c1 [Example 3, (2E)-3-(4-chloro-3-{[(3-phenylnaphthalen-1-yl)carbonyl]amino}phenyl)prop-2-enoic acid] | 12600 to 31600 nM | 0.1 to 2 mg/kg |
| O=C(O)/C=C/c1ccc(F)c(NC(=O)c2cc(-c3ccccc3F)cc3ccccc23)c1 [Example 9, (2E)-3-{3-[({3-[2-fluorophenyl]naphthalen-1-yl}carbonyl)amino]-4fluorophenyl}prop-2-enoic acid] | 126 to 1000 nM | 0.1 to 2 mg/kg |
| O=C(O)/C=C/c1ccc(F)c(NC(=O)c2cc(-c3cccc(F)c3)cc3ccccc23)c1 [Example 10, (2E)-3-{3-[({3-[3-fluorophenyl]naphthalen-1-yl}carbonyl)amino]-4fluorophenyl}prop-2-enoic acid] | 126 to 1000 nM | 0.1 to 2 mg/kg |

— patent US9309187B2, “EP2 receptor agonists” (TAKEDA GMBH, priority 2012, dated 2016)
